Where two headings read alike, the source gives them in different places.
Columns and labels:
[1] = Cell growth inhibition assay: cytotoxicity by sulforhodamine B (SRB) assay; type: cell-based; details: 96 h
Experimental: B. Cell Growth Inhibition Assay:
• 1) Determine cell number by haemocytometer. • 2) Using an 8 channel multipipettor, add 160 μl of the cell suspension ([…] or 2×10^4 cells/ml) to each well of a 96-well microtitre plate. • 3) Incubate overnight at 37° C. in a CO2 incubator. Day 2 • 4) Stock solutions of drugs are prepared, and serial dilutions of each drug are performed in medium to give final concentrations in wells. • 5) Using a multipipettor, 40 μl of drug (at 5× final concentration) is added to quadruplicate wells. • 6) Control wells are at either side of the 96 well plates, where 40 μl of medium is added. • 7) Incubate plates in CO2 incubator for 4 days Day 6 • 8) Tip off medium into sink and immerse plate slowly into 10% ice cold trichloroacetic acid (TCA). Leave for about 30 mins on ice. • 9) Wash plates three times in tap water by immersing the plates into baths of tap water and tipping it off. • 10) Dry in incubator. • 11) Add 100 μl of 0.4% SRB in 1% acetic acid to each well (except the last row right hand)of the 96 well plate, this is the 0% control, ie no drug, no stain. The first row will be the 100% control with no drug, but with stain). Leave for 5 mins. • 12) Wash off unbound SRB stain with four washes of 1% acetic acid. • 13) Dry plates in incubator. • 14) Solubilise SRB using 100 μl of 10 mM Tris base and put plates on plate shaker for 5 mins. • 15) Determine absorbance at 540 nm using a plate reader. Calculate mean absorbance for quadruplicate wells and express as a percentage of value for control, untreated wells.
Plot % absorbance values versus log drug concentration and determine the IC50.

GST-Chk1 enzyme = molecular target: T1, GST-Chk1 enzyme (Homo sapiens, UniProt O14757); test: Chk1 kinase inhibition assay (33P phosphorylation of Chktide, filter plate); type: biochemical; details: 0.01 mM ATP, 11 nM GST-Chk1, 40 minutes at 30° C.; read-out: Chk1 IC50
T1 sequence (O14757 1-476): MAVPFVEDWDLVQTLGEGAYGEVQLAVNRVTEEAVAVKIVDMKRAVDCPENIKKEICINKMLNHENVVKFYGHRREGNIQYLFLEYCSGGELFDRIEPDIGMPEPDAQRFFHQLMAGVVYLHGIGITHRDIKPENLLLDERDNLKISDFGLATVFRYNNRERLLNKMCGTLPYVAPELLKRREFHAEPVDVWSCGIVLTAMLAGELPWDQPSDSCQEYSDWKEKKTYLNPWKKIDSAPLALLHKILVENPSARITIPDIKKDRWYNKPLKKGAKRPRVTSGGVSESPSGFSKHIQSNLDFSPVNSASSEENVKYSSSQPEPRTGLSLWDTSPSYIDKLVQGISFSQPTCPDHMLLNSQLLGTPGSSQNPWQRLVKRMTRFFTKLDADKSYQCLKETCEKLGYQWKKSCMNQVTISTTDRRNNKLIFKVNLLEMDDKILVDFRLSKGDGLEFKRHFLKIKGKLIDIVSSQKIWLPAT
Summary of the method: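 Inhibitor and enzyme reacted 40 min at 30 °C, then stopped with 50 mM phosphoric acid. Phosphorylated peptide captured on filter plates and quantified by scintillation counting.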

[2] = molecular target: CDK-2 enzyme, complexed with cyclin A (Homo sapiens, UniProt P24941); test: CDK2 enzyme inhibition assay (33P phosphorylation of peptide […], filter plate); type: biochemical; details: CDK-2/cyclin A, 0.1 mM ATP, 40 min at 30° C.
Summary of the method: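 Cyclin A–complexed CDK2 (0.4 U/ml) incubated with inhibitor, 0.03 mM peptide, 0.1 mM ATP plus 33P-γ-ATP in HEPES pH 7.5, 7.5 mM Mg acetate, 0.1 mg/ml BSA, 40 min at 30 °C. Stopped with phosphoric acid; phosphorylated peptide captured on filter plates and counted by scintillation.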

PDK1 enzyme = molecular target: T2, PDK1 enzyme (Homo sapiens, UniProt O15530); test: PDK1 kinase inhibition assay (33P phosphorylation of synthetic peptide, filter plate); type: biochemical; details: 0.01 mM ATP, 60 min at 30° C.; read-out: PDK1 IC50
T2 sequence (O15530 1-556): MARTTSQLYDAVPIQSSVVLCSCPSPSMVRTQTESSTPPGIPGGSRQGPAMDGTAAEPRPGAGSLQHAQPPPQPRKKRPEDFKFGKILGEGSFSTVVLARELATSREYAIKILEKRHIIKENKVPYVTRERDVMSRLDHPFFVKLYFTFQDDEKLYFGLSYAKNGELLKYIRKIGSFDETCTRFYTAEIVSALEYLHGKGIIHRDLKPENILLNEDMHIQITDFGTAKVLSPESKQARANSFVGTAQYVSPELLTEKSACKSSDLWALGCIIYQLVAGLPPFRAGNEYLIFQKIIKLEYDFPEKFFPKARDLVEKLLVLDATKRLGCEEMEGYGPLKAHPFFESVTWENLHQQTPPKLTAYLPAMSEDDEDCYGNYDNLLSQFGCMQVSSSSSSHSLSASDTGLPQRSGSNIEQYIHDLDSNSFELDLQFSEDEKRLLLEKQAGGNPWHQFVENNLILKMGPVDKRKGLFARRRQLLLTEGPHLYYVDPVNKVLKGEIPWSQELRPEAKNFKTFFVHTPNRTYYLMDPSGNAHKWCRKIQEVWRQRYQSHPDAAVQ
Summary of the method: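 PDK1 and inhibitor incubated 60 min at 30° C with 0.01 mM ATP plus 33P-γ-ATP, 0.075 mM peptide, 7.5 mM Mg acetate, 0.1 mg/ml BSA in 0.05 M Tris.HCl pH 7.5. Stopped with phosphoric acid; phosphorylated peptide captured on filter plate and counted by scintillation.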

[3] = SRB assay, 4 days with drug, cell line not named, read-out: GI50

Row | IC50 (GST-Chk1 enzyme) | IC50 [2] | IC50 (PDK1 enzyme) | Compound | GI50 [1, 3] | GI50 [1]
1 | 4.19 µM | 0.36 µM |  | CN(C)S(=O)(=O)c1ccc(Nc2cc(O[C@H]3CCNC3)nc3c(Cl)cnn23)cc1 [Example 196] | 1 µM | 
2 |  | 0.018 µM |  | N[C@H]1CC[C@H](Nc2cc(Nc3ccc(Oc4cncc(Cl)c4)cc3)n3ncc(Cl)c3n2)CC1 [Example 191] | 0.04 µM | 
3 | 2.08 µM | 0.018 µM | 4.48 µM | CSc1cnn2c(Nc3ccc(Oc4cncc(Cl)c4)cc3)cc(N[C@H]3CC[C@H](N)CC3)nc12 [Example 198] | 0.31 µM | 
4 | 5 µM | 0.014 µM | 15.2 µM | CN(C)S(=O)(=O)c1ccc(Nc2cc(O[C@H]3CC[C@H](N)CC3)nc3c(Cl)cnn23)cc1 [Example 168] | 0.21 µM | 
5 | 2.14 µM | 0.009 µM | 3.24 µM | N[C@H]1CC[C@H](Nc2cc(Nc3cccc(Cl)c3)n3ncc(Cl)c3n2)CC1 [Example 192] | 0.2 µM | 
6 |  | 0.055 µM |  | CSc1cnn2c(Nc3ccc(S(=O)(=O)N(C)C)cc3)cc(N[C@H]3CC[C@H](N)CC3)nc12 [Example 197] | 0.58 µM | 
7 | 0.21 µM | 0.073 µM | 4.42 µM | CC(C)c1cnn2c(Nc3ccc(S(=O)(=O)N(C)C)cc3)cc(N[C@H]3CCNC3)nc12 [Example 194] | 0.59 µM | 
8 | > 200 µM | 0.066 µM | > 200 µM | CC(=O)N[C@H]1CC[C@H](Nc2cc(Nc3ccc(S(=O)(=O)N(C)C)cc3)n3ncc(C(C)C)c3n2)CC1 [Example 79] |  | 
9 | 1 µM | 0.101 µM | 109 µM | N[C@H]1CC[C@H](Nc2cc(Nc3ccc(Oc4ccccc4)cc3)n3ncc(Br)c3n2)CC1 [Example 181] | 0.09 µM | 
10 | 1.53 µM | 10 µM | 6 µM | CN(C)S(=O)(=O)c1ccc(Nc2cc(N[C@H]3CC[C@H](N)CC3)nc3c(-c4ccccc4)cnn23)cc1 [Example 163] |  | 
11 | > 200 µM | 0.965 µM | > 200 µM | CC(C)c1cnn2c(Nc3ccc(S(=O)(=O)N(C)C)cc3)cc(NCCCN3CCOCC3)nc12 [Example 102] |  | 

More lines, now with the values behind:

Row | Compound | IC50 (GST-Chk1 enzyme) | IC50 [2] | IC50 (PDK1 enzyme) | GI50 [1, 3] | GI50 [1]
12 | CN(C)S(=O)(=O)c1ccc(Nc2cc(N[C@H]3CC[C@H](N)CC3)nc3c(Br)cnn23)cc1Cl [Example 180] | 0.83 µM | 0.002 µM | 2 µM |  | 0.33 µM
13 | CCN[C@H]1CC[C@H](Nc2cc(Nc3ccc(S(=O)(=O)N(C)C)cc3)n3ncc(C(C)C)c3n2)CC1 [Example 147] | 4 µM | 0.098 µM | 10 µM |  | 1 µM
14 | CCc1cnn2c(Nc3ccc(S(C)(=O)=O)cc3)cc(Cl)nc12 [Example 43] | > 200 µM | 0.107 µM | > 200 µM |  | 
15 | Cc1cccc(-c2cc(Nc3ccc(S(=O)(=O)Nc4nccs4)cc3)n3nccc3n2)c1 [Example 17] | > 200 µM | 3.17 µM | 31.6 µM |  | 
16 | Cc1cccc(-c2cc(Nc3ccc(S(=O)(=O)N4CCOCC4)cc3)n3nccc3n2)c1 [Example 13] | > 200 µM | 1.76 µM | > 200 µM |  | 
17 | CC(C)COc1cc(Nc2ccc(S(=O)(=O)N(C)CCN(C)C)cc2)n2ncc(C(C)C)c2n1 [Example 72] | 8.4 µM | 1.28 µM | > 200 µM |  | 
18 | CNS(=O)(=O)c1ccc(Nc2cc(Cl)nc3c(C(C)C)cnn23)cc1 [Example 46] | > 200 µM | 0.076 µM | 109 µM |  | 
19 | CC(C)c1cnn2c(Nc3ccc(S(=O)(=O)N(C)C)cc3)cc(N3CCC(C(N)=O)CC3)nc12 [Example 73] | > 200 µM | 1.48 µM | > 200 µM |  | 
20 | CC(C)c1cnn2c(Nc3ccc(S(C)(=O)=O)cc3)cc(OCCN(C)C)nc12 [Example 53] | > 200 µM | 8.41 µM | > 200 µM |  | 
21 | CC(C)COc1cc(Nc2ccc(S(=O)(=O)N(C)CCO)cc2)n2ncc(C(C)C)c2n1 [Example 42] | > 200 µM | 0.17 µM | > 200 µM |  | 
22 | CC(C)c1cnn2c(Nc3ccc(S(=O)(=O)NCCN(C)C)cc3)cc(Cl)nc12 [Example 77] | > 200 µM | 0.039 µM | 9.49 µM |  | 

Source: patent US20070179161A1, “Pyrazolopyrimidine compounds and their use in medicine” (VERNALIS (CAMBRIDGE) LIMITED., priority 2003, published 2007)
